The values below come from patent publication US7169789B2 (Kirin Beer Kabushiki Kaisha, priority 1999, dated 2007).

The IC50 is the concentration needed to halve the response being measured.

The target of one experiment is T1, human KDR (Homo sapiens, UniProt P35968).
T1 construct: expressed in transfected cells; host or cells: NIH 3T3 cells (Sawano A et al., Cell Growth & Differentiation 7, 213-221 (1996))
The experiment is described as follows: Inhibitory activity against KDR phosphorylation by ELISA. It counts as cell-based. The conditions noted are these: NIH 3T3 cells transfected with human KDR, VEGF 100 ng/ml. On the procedure:
Measurement of Inhibitory Activity Against KDR Phosphorylation by ELISA
NIH 3T3 cells (Sawano A et al., Cell Growth & Differentation, 7, 213–221 (1996), “Flt-1 but not KDR/Flk-1 tyrosine kinase is a receptor for placenta growth factor, which is related to vascular endothelial growth factor”) prepared by transfection of human KDR were cultured in a DMEM medium containing 10% fetal calf serum (purchased from GIBCO BRL) within a 5% carbon dioxide incubator until 50 to 70% confluent. The harvested cells were inoculated into wells, containing the same medium, in a collagen-type one-coat 96-well flat-bottom plate in an amount of 1.5×10^4 per well, followed by cultivation at 37° C. overnight. The medium was then replaced by a DMEM medium containing 0.1% fetal calf serum. A solution of the test compound in dimethyl sulfoxide was added to each well, and the cultivation was continued at 37° C. for additional one hr. A human recombinant vascular endothelial growth factor (hereinafter abbreviated to “VEGF”) was added to a final concentration of 100 ng/ml, and the stimulation of cells was carried out at 37° C. for 2 min. The medium was removed, the cells were washed with phosphate buffered saline (pH 7.4), and 50 μl of a solubilization buffer (20 mM HEPES (pH 7.4), 150 mM NaCl, 0.2% Triton X-100, 10% glycerol, 5 mM sodium orthovanadylate, 5 mM disodium ethylenediaminetetraacetate, and 2 mM Na4P2O7) was then added thereto. The mixture was shaken at 4° C. for 2 hr to prepare a cell extract.
Separately, phosphate buffered saline (50 μl, pH 7.4) containing […] of anti-phospho-tyrosine antibody (PY20; purchased from Transduction Laboratories) was added to a microplate for ELISA (Maxisorp; purchased from NUNC), followed by standing at 4° C. overnight to form a solid phase on the wells. After washing of the plate, 300 μl of a blocking solution was added, followed by standing at room temperature for 2 hr to perform blocking. After washing, the whole quantity of the cell extract was transferred to the wells, and the plate was then allowed to stand at 4° C. overnight. After washing, an anti-KDR antibody (purchased from Santa Cruz) was allowed to react at room temperature for one hr, and, after washing, a peroxidase-labeled anti-rabbit Ig antibody (purchased from Amersham) was allowed to react at room temperature for one hr. After washing, a chromophoric substrate for peroxidase (purchased from Sumitomo Bakelite Co., Ltd.) was added thereto to initiate a reaction. After a suitable level of color development, a reaction termination solution was added to stop the reaction, and the absorbance at 450 nm was measured with a microplate reader. The KDR phosphorylation activity for each well was determined by presuming the absorbance with the addition of VEGF and without the addition of the medicament to be 100% KDR phosphorylation activity and the absorbance without the medicament and VEGF to be 0% KDR phosphorylation activity. The concentration of the test compound was varied on several levels, the inhibition (%) of KDR phosphorylation was determined for each case, and the concentration of the test compound necessary for inhibiting 50% of KDR phosphorylation (IC50) was calculated.
(ELISA stands for enzyme-linked immunosorbent assay.)

For a further experiment, the system named is Human glioma cells GL07. Put plainly: Antitumor effect on human glioma cells (GL07) transplanted into nude mice. The format is in vivo. The conditions noted are these: GL07, oral, 20 mg/kg once a day for 9 days; for inhibition in vivo at 20 mg/kg: Mus musculus, Glioma cell, 216 h, read-out: TGIR, % (tumor growth inhibition rate). The procedure:
Antitumor Effect on Human Glioma Cells (GL07)
Human glioma cells GL07 (obtained from Central Laboratories for Experimental Animals) were transplanted into nude mice. When the tumor volume became about 100 mm^3, the mice were grouped. In this case, grouping was carried out so that each group consisted of four mice and the average tumor volume was even among the groups. The test compound was orally or intraperitoneally administered at a dose of 20 mg/kg to the test groups every day once a day for 9 days, while the medium was administered to the control group in the manner as in the test groups. The tumor growth inhibition rate (TGIR) was calculated as follows: The tumor growth inhibition rate (TGIR)=(1−Tx/Cx)×100 wherein Cx represents the volume of tumor at day x for the control group when the tumor volume at the day of the start of the administration was presumed to be 1; and Tx represents the volume of tumor for test compound administration groups.

T1 sequence (P35968 20-1356): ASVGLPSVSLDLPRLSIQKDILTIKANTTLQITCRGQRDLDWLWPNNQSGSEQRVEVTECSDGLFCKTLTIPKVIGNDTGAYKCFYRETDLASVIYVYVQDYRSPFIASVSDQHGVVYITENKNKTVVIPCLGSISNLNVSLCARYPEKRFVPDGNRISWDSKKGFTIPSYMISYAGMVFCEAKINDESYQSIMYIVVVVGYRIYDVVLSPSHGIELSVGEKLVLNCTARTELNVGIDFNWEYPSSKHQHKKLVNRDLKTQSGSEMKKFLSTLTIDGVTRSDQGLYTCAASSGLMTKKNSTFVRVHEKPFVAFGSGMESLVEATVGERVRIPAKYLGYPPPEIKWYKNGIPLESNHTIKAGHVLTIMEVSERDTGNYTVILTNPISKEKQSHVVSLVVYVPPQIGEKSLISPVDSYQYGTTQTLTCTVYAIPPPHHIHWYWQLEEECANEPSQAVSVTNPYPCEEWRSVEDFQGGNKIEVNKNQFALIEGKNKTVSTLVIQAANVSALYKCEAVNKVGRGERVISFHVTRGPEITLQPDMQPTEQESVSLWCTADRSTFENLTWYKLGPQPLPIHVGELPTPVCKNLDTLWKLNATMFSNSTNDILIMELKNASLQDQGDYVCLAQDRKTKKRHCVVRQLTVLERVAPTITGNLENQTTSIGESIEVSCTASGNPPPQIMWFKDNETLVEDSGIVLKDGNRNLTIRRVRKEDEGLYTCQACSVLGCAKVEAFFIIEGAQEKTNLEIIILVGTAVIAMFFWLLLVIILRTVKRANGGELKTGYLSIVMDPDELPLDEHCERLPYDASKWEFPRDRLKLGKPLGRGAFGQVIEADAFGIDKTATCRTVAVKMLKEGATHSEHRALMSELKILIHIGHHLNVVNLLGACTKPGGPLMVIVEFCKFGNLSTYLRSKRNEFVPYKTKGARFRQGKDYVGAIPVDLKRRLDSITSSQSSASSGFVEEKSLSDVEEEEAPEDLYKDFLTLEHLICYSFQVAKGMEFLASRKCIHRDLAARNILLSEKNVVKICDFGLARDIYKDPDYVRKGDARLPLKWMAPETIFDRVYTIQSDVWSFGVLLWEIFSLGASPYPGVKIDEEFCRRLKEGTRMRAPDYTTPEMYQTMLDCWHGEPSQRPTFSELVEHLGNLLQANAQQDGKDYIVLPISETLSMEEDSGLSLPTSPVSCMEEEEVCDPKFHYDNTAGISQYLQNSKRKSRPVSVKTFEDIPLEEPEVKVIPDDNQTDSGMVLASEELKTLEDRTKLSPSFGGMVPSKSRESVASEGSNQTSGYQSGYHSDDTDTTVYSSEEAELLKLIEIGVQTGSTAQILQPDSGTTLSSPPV

At human KDR, `CCCCNC(=O)Nc1ccc(Oc2ncnc3cc(OC)c(OC)cc23)cc1[N+](=O)[O-]` [Example 108, N-Butyl-N′-{4-[(6,7-dimethoxy-4-quinazolinyl)oxy]-2-nitrophenyl}urea] had an IC50 of 5 nM.

With `CCCNC(=O)Nc1ccc(Oc2ncnc3cc(OCCCO)c(OC)cc23)cc1Cl` [Example 121, N-(2-Chloro-4-{(7-(3-hydroxypropoxy)-6-methoxy-4-quinazolinyl]oxy}phenyl)-N′-propylurea], inhibition against human KDR was half-maximal at 12.5 nM (IC50). The inhibition in vivo at 20 mg/kg with Human glioma cells GL07 came out at 22%.

At human KDR, `CCCNC(=O)Nc1ccc(Oc2ccnc3cc(OCCCn4ccnc4)c(OC)cc23)cc1Cl` [Example 154, N-[2-Chloro-4-({7-[3-(1H-1-imidazolyl)-propoxy]-6-methoxy-4-guinolyl}oxy)phenyl]-N′-propylurea] displayed a concentration for half-maximal inhibition (IC50) of 1.5 nM. The inhibition in vivo at 20 mg/kg in the experiment on Human glioma cells GL07 was found to be 34%.

Consider `CCCNC(=O)Nc1ccc(Oc2ncnc3cc(OCCCN4CCCCC4)c(OC)cc23)cc1Cl` [Example 135, N-(2-chloro-4-{[6-methoxy-7-(3-piperidinopropoxy)-4-quinazolinyl]oxy}phenyl)-N′-propylurea], for which the IC50 against human KDR was determined as 1 nM. Also, the inhibition in vivo at 20 mg/kg in the experiment on Human glioma cells GL07 was determined as 62%.

As for `CCN(CC)C(=O)Nc1ccc(Oc2ncnc3cc(OC)c(OC)cc23)cc1Cl` [Example 116, N′-{2-Chloro-4-[(6,7-dimethoxy-4-quinazolinyl)oxy]phenyl}-N,N-diethylurea], the IC50 on human KDR is greater than 1000 nM. Also, the inhibition in vivo at 20 mg/kg with Human glioma cells GL07 turned out to be 83%.

At human KDR, `CCCNC(=O)Nc1ccc(Oc2ccnc3cc(OCCn4ccnc4)c(OC)cc23)cc1Cl` [Example 146, N-[2-chloro-4-(7-{[2-(1H-1-imidazolyl)ethoxy]-6-methoxy-4-quinolyl}oxy)phenyl]-N′-propylurea] came in with an IC50 of 1 nM. Also, in the experiment with Human glioma cells GL07, the inhibition in vivo at 20 mg/kg turned out to be 48%.

For the molecule `CCCNC(=O)Nc1cc(C)c(Oc2ccnc3cc(OCCCN4CCN(C)CC4)c(OC)cc23)cc1C` [Example 176, N-[4-({6-Methoxy-7-[3-(4-methylpiperazino)-propoxy]-4-guinolyl}oxy)-2,5-dimethylphenyl]-N′-propylurea], half-maximal inhibition against human KDR (IC50) was put at 3.7 nM. In addition, the inhibition in vivo at 20 mg/kg in the experiment with Human glioma cells GL07 stood at 22%.

Molecule `COc1cc2c(Oc3ccc(NC(=O)Nc4ccc(F)cc4F)c(Cl)c3)ccnc2cc1OCCN1CCN(C)CC1` [Example 166, N-[2-Chloro-4-({6-methoxy-7-[2-(4-methylpiperazino)ethoxy]-4-guinolyl}oxy)phenyl]-N′-(2,4-difluorophenyl)urea] gave an IC50 on human KDR of 2.2 nM. The inhibition in vivo at 20 mg/kg with Human glioma cells GL07 was 27%.

Molecule `CCCNC(=O)Nc1ccc(Oc2ncnc3cc(OCCCCN4CCOCC4)c(OC)cc23)cc1Cl` [Example 127, N-(2-Chloro-4-{[6-methoxy-7-(4-morpholinobutoxy)-4-quinazolinyl]oxy}phenyl)-N′-propylurea] showed an IC50 on human KDR of 1.1 nM. The inhibition in vivo at 20 mg/kg with Human glioma cells GL07 turned out to be 25%.

With `CCCNC(=O)Nc1ccc(Oc2ccnc3cc(OCCN(CCO)CCO)c(OC)cc23)cc1Cl` [Example 155, N-{2-Chloro-4-[(7-{2-[di(2-hydroxyethyl)-amino]ethoxy}-6-methoxy-4-guinolyl)oxy]phenyl}-N-propylurea], on human KDR, half-maximal inhibition (IC50) was put at 2.1 nM. The inhibition in vivo at 20 mg/kg with Human glioma cells GL07 came out at 29%.

`CCN(CC)C(=O)Nc1ccc(Oc2ncnc3cc(OCc4ccncc4)c(OC)cc23)cc1Cl` [Example 126, N′-(2-Chloro-4-{[6-methoxy-7-(4-pyridylmethoxy)-4-quinazolinyl]oxy}phenyl)-N,N-diethyl-urea] showed an IC50 on human KDR greater than 1000 nM. Moreover, the inhibition in vivo at 20 mg/kg in the experiment on Human glioma cells GL07 worked out at 52%.

Regarding `C#CCNC(=O)Nc1ccc(Oc2ncnc3cc(OC)c(OC)cc23)cc1Cl` [Example 81, N-{2-Chloro-4-[(6,7-dimethoxy-4-quinazolinyl)oxy]phenyl}-N′-(2-propynyl)urea], at human KDR, half-maximal inhibition (IC50) was put at 4.1 nM.

Turning to `CCCNC(=O)Nc1ccc(Oc2ncnc3cc(OCCN(C)CCO)c(OC)cc23)cc1Cl` [Example 129, N-{2-Chloro-4-[(7-{2-[(2-hydroxyethyl)-(methyl)amino]ethoxy}-6-methoxy-4-quinazolinyl)oxy]-phenyl}-N′-propylurea], the inhibition in vivo at 20 mg/kg in the experiment with Human glioma cells GL07 came out at 25%.

Turning to `CCCNC(=O)Nc1ccc(Oc2ccnc3cc(OCc4ccncc4)c(OC)cc23)cc1OC` [Example 174, N-(2-Methoxy-4-{[6-methoxy-7-(4-pyridylmethoxy)-4-guinolyl]oxy}phenyl)-N′-propylurea], the “TGIR, % (tumor growth inhibition rate)” value in the experiment on Human glioma cells GL07 came out at 19%.

Molecule `COc1cc2ncnc(Oc3ccc(NC(=O)N(C)C)c(Cl)c3)c2cc1OC` [Example 118, N′-{2-Chloro-4-[(6,7-dimethoxy-4-quinazolinyl)oxy]phenyl}-N,N-dimethylurea] yielded an IC50 on human KDR greater than 1000 nM.

Take `COc1cc(Oc2ncnc3cc(OCCCN4CCOCC4)c(OC)cc23)ccc1NC(=O)Nc1ccc(F)cc1F` [Example 172, N-(2,4-Difluorophenyl)-N′-(2-methoxy-4-{[6-methoxy-7-(3-morpholinopropoxy)-4-quinazolinyl]oxy}-phenyl)urea]: the inhibition in vivo at 20 mg/kg with Human glioma cells GL07 amounted to 42%.

With `CCCNC(=O)Nc1ccc(Oc2ncnc3cc(OCCN4CCN(C)CC4)c(OC)cc23)cc1Cl` [Example 128, N-[2-Chloro-4-({6-methoxy-7-[2-(4-methylpiperazino)ethoxy]-4-quinazolinyl}oxy)phenyl]-N′-propylurea], in the experiment on Human glioma cells GL07, the inhibition in vivo at 20 mg/kg was found to be 21%.

For `CCCNC(=O)Nc1ccc(Oc2ccnc3cc(OCCCN4CCOCC4)c(OC)cc23)cc1OC` [Example 173, N-(2-Methoxy-4-{[6-methoxy-7-(3-morpholinopropoxy)-4-quinolyl]oxy}phenyl)-N′-propylurea], in the experiment on Human glioma cells GL07, the inhibition in vivo at 20 mg/kg was 21%.

`CNC(=O)Nc1ccc(Oc2ncnc3cc(OC)c(OC)cc23)cc1Cl` [Example 117, N-{2-chloro-4-[(6,7-dimethoxy-4-quinazolinyl)oxy]phenyl}-N′-methylurea] gave an IC50 against human KDR of 24 nM.

For the molecule `CCCNC(=O)Nc1ccc(Oc2ncnc3cc(OCCCN4CCN(C)CC4)c(OC)cc23)cc1Cl` [Example 130, N-[2-Chloro-4-({6-methoxy-7-[3-(4-methylpiperazino)propoxy]-4-quinazolinyl}oxy)phenyl]-N′-propylurea], the inhibition in vivo at 20 mg/kg in the experiment on Human glioma cells GL07 amounted to 32%.

For `CCCNC(=O)Nc1ccc(Oc2ncnc3cc(OCCCN4CCOCC4)c(OC)cc23)cc1OC` [Example 171, N-(2-Methoxy-4-{[6-methoxy-7-(3-morpholinopropoxy)-4-quinazolinyl]oxy}phenyl)-N′-propylurea], the inhibition in vivo at 20 mg/kg in the experiment with Human glioma cells GL07 stood at 13%.

`CCCNC(=O)Nc1ccc(Oc2ncnc3cc(OC)c(OC)cc23)cc1F` [Example 88, N-{4-[(6,7-Dimethoxy-4-quinazolinyl)oxy]-2-fluorophenyl}-N′-propylurea] displayed a half-inhibitory concentration (IC50) at human KDR of 61 nM.

Consider `COc1cc2c(Oc3ccc(NC(=O)Nc4ccc(F)cc4F)c(Cl)c3)ccnc2cc1OCCN1CCOCC1` [Example 51, N-(2-chloro-4-{[6-methoxy-7-(2-morpholinoethoxy)-4-quinolyl]oxy}phenyl)-N′-(2,4-difluorophenyl)urea], for which the inhibition in vivo at 20 mg/kg in the experiment on Human glioma cells GL07 is 65%.

In the case of `CCCNC(=O)N(COC)c1ccc(Oc2ncnc3cc(OC)c(OC)cc23)cc1Cl` [Example 109, N-{2-Chloro-4-[(6,7-dimethoxy-4-quinazolinyl)oxy]phenyl}-N-methoxymethyl-N′-propylurea], in the experiment with Human glioma cells GL07, the inhibition in vivo at 20 mg/kg was 71%.
